Dmax data for eight compounds are collected here from patent publication US12577231B2, “Androgen receptor PROTACS” (GlaxoSmithKline Intellectual Property Development Limited, priority 2023, dated 2026).

The Dmax is the largest share of the target that was removed. Lower therefore signals shallow degradation.

Substitutions are numbered along the chain they refer to.

Experiment [1] addresses T1, Androgen Receptor, VCaP (AR wild type and amplified) (Homo sapiens, UniProt P10275).
T1 construct: endogenous in cells; host or cells: VCaP
T1 sequence (P10275 1-920): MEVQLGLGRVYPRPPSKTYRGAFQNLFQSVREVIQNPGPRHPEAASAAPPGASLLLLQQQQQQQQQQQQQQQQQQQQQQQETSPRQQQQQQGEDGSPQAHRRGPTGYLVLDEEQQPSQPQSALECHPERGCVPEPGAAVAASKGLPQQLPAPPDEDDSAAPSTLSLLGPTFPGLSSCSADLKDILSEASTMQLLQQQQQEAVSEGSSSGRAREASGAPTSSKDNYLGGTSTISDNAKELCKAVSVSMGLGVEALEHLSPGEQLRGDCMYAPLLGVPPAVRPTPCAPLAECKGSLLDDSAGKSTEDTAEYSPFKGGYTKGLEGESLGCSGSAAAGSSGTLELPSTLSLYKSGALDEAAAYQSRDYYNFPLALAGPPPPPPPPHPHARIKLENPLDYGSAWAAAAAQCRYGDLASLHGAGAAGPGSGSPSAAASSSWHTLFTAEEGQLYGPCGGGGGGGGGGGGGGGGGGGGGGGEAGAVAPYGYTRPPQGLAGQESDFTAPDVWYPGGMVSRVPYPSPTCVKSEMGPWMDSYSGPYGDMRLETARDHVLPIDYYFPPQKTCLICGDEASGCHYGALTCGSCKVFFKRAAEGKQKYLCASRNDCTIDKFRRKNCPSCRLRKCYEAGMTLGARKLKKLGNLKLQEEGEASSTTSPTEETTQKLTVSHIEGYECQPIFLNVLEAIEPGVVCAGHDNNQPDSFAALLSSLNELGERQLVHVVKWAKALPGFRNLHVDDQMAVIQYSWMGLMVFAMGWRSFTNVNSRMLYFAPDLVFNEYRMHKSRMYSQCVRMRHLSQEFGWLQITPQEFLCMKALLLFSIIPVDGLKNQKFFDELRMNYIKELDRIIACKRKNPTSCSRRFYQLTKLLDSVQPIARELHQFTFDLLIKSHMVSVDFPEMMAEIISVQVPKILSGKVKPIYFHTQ
The experiment is described as follows: Androgen Receptor Degradation-Imaging Assay, VCaP cell line. The format is cell-based. The conditions noted are these: 16 hours treatment, maximum observed degradation. The method, then: (§1) Degradation of Androgen Receptor (AR) protein in human prostate cancer cell lines (MDA-PCa-2b (AR T878A/L702H), LNCaP (AR T878A), VCaP (AR wild type and amplified) 22RV1 (AR H875Y) and PC3 (AR negative control)) treated with AR PROTACs was quantified using immunofluorescence. Prostate cancer cells were plated (MDA-PCa-2b, and VCaP 16,000 cells/well; LNCaP and 22RV1 32,000 cells/well, and PC3 8,000 cells/well) in an optical bottom 96-well cell culture plate and allowed to attach overnight. The prostate cancer cell lines were treated for 16 hours with a 10-point 3-fold dilution series (dose range=0.02 nM to 333 nM). PC3 is included as an AR negative control and not treated with compound. Cells are fixed and permeabilized with 4% formaldehyde, blocked with 10% goat serum in immunofluorescence (IF) buffer (130 mM NaCl, 7 mM Na2HPO4, 3.5 mM NaH2PO4, 7.7 mM NaN3, 0.1% BSA, 0.2% Triton X, 0.05% Tween 20) prior to overnight incubation with rabbit antibody specific for C terminus of AR (commercially available from RevMaB Biosciences). Following washes with IF buffer, cells were incubated with fluorescent secondary antibody (Goat anti-rabbit Alexa 647; commercially available from Invitrogen) and Hoechst nuclear stain (commercially available from Themo Scientific) prior to quantification of nuclear AR levels via Opera Phenix high-content fluorescent imager using a 40× water objective. Image analysis was performed with Harmony software.
(§2) The averaged nuclear Alexa 647 median fluorescence intensity (MFI) of PC3 cells is subtracted from the nuclear Alexa 647 MFI of PROTAC treated and DMSO control treated cells. % AR remaining is calculated for PROTAC treatments as a percent of the DMSO control (MFI PROTAC treated/MFI DMSO control treated)*100). DC50 and the Dmax values, were obtained from these normalised values fitted with a 4-parameter sigmoidal response curve (Xlfit software). The DC50 is the interpolated concentration of PROTAC corresponding to 50% of the protein being degraded, and the Dmax parameter is the maximum experimentally observed degradation.

In experiment [2] the target is T2, Androgen Receptor, MDA-PCa-2b (AR T878A/L702H) (Homo sapiens, UniProt P10275, L702H/T878A).
T2 construct: host or cells: MDA-PCa-2b
T2 sequence (P10275 1-920 L702H/T878A): T1 sequence (P10275 1-920) with L702H, T878A
The experiment is described as follows: Androgen Receptor Degradation-Imaging Assay, MDA-PCa-2b cell line. The format is cell-based. The conditions noted are these: 16 hours treatment, maximum observed degradation. The protocol:
as §1, §2

On to `CC1(C)[C@H](NC(=O)c2ccc(N3CCC(CN4CCC(n5ncc6c(N7CCC(=O)NC7=O)nccc65)CC4)CC3)c(F)c2)C(C)(C)[C@H]1Oc1ccc(C#N)c2ncccc12` [Example 39, N-((1r,3r)-3-((8-Cyanoquinolin-5-yl)oxy)-2,2,4,4-tetramethylcyclobutyl)-4-(4-((4-(4-(2,4-dioxotetrahydropyrimidin-1(2H)-yl)-1H-pyrazolo[4,3-c]pyridin-1-yl)piperidin-1-yl)methyl)piperidin-1-yl)-3-fluorobenzamide], for which the Dmax in experiment [1] and in experiment [2] was no less than 80% each time.
Regarding `CC1(C)[C@H](NC(=O)c2ccc(N3CCC(CN4CCC(n5ncc6c(N7CCC(=O)NC7=O)ccnc65)CC4)CC3)c(F)c2)C(C)(C)[C@H]1Oc1ccc(C#N)c2ncccc12` [Example 40, N-((1r,3r)-3-((8-Cyanoquinolin-5-yl)oxy)-2,2,4,4-tetramethylcyclobutyl)-4-(4-((4-(4-(2,4-dioxotetrahydropyrimidin-1(2H)-yl)-1H-pyrazolo[3,4-b]pyridin-1-yl)piperidin-1-yl)methyl)piperidin-1-yl)-3-fluorobenzamide], the Dmax in experiment [1] and in experiment [2] was no less than 80% in each case.
Regarding `CC1(C)[C@H](NC(=O)c2ccc(N3CCC(CN4CCC(n5ccc6c(N7CCC(=O)NC7=O)cccc65)CC4)CC3)cc2)C(C)(C)[C@H]1Oc1ccc(C#N)c2ncccc12` [Example 43, N-((1r,3r)-3-((8-Cyanoquinolin-5-yl)oxy)-2,2,4,4-tetramethylcyclobutyl)-4-(4-((4-(4-(2,4-dioxotetrahydropyrimidin-1(2H)-yl)-1H-indol-1-yl)piperidin-1-yl)methyl)piperidin-1-yl)benzamide], the Dmax in experiment [1] and in experiment [2] was no less than 80% in each case.
In the case of `CC1(C)[C@H](NC(=O)c2ccc(N3CCC(CN4CCC(n5ccc6c(N7CCC(=O)NC7=O)ncnc65)CC4)CC3)c(F)c2)C(C)(C)[C@H]1Oc1ccc(C#N)c2ncccc12` [Example 47, N-((1r,3r)-3-((8-Cyanoquinolin-5-yl)oxy)-2,2,4,4-tetramethylcyclobutyl)-4-(4-((4-(4-(2,4-dioxotetrahydropyrimidin-1(2H)-yl)-7H-pyrrolo[2,3-d]pyrimidin-7-yl)piperidin-1-yl)methyl)piperidin-1-yl)-3-fluorobenzamide], the Dmax in experiment [1] and in experiment [2] was no less than 80% in each case.
As to `CC1(C)[C@H](NC(=O)c2ccc(N3CCC(O)(CN4CCC(n5ncc6c(N7CCC(=O)NC7=O)cccc65)CC4)CC3)c(F)c2)C(C)(C)[C@H]1Oc1ccc(C#N)c2ncccc12` [Example 48, N-((1r,3r)-3-((8-Cyanoquinolin-5-yl)oxy)-2,2,4,4-tetramethylcyclobutyl)-4-(4-((4-(4-(2,4-dioxotetrahydropyrimidin-1(2H)-yl)-1H-indazol-1-yl)piperidin-1-yl)methyl)-4-hydroxypiperidin-1-yl)-3-fluorobenzamide], the Dmax in experiment [1] and in experiment [2] was no less than 80% in each case.
With `CC1(C)[C@H](NC(=O)c2ccc(N3CCC4(CC3)CC(N3CCC(n5ncc6c(N7CCC(=O)NC7=O)cccc65)CC3)C4)c(F)c2)C(C)(C)[C@H]1Oc1ccc(C#N)c2ncccc12` [Example 49, N-((1r,3r)-3-((8-Cyanoquinolin-5-yl)oxy)-2,2,4,4-tetramethylcyclobutyl)-4-(2-(4-(4-(2,4-dioxotetrahydropyrimidin-1(2H)-yl)-1H-indazol-1-yl)piperidin-1-yl)-7-azaspiro[3.5]nonan-7-yl)-3-fluorobenzamide], the Dmax in experiment [1] and in experiment [2] was no less than 80% each time.
As to `CC1(C)[C@H](NC(=O)c2ccc(N3CCC(CN4CCC(n5ncc6c(N7CCC(=O)NC7=O)c(F)ccc65)CC4)CC3)c(F)c2)C(C)(C)[C@H]1Oc1ccc(C#N)c2ncccc12` [Example 50, N-((1r,3r)-3-((8-Cyanoquinolin-5-yl)oxy)-2,2,4,4-tetramethylcyclobutyl)-4-(4-((4-(4-(2,4-dioxotetrahydropyrimidin-1(2H)-yl)-5-fluoro-1H-indazol-1-yl)piperidin-1-yl)methyl)piperidin-1-yl)-3-fluorobenzamide], the Dmax in experiment [1] and in experiment [2] was no less than 80% in each case.
As for `CC1(C)[C@H](NC(=O)c2ccc(N3CCC(CN4CCC(n5ccc6c(N7CCC(=O)NC7=O)c(F)ccc65)CC4)CC3)c(F)c2)C(C)(C)[C@H]1Oc1ccc(C#N)c2ncccc12` [Example 51, N-((1r,3r)-3-((8-Cyanoquinolin-5-yl)oxy)-2,2,4,4-tetramethylcyclobutyl)-4-(4-((4-(4-(2,4-dioxotetrahydropyrimidin-1(2H)-yl)-5-fluoro-1H-indol-1-yl)piperidin-1-yl)methyl)piperidin-1-yl)-3-fluorobenzamide], the Dmax in experiment [1] and in experiment [2] was no less than 80% throughout.
